Biological target: T1, α4β1 integrin (Jurkat T-cell adhesion to IL-1 stimulated endothelial cell monolayers) (Homo sapiens, UniProt P05556+P13612)
T1 construct: a T-cell line, Jurkat, known to express the α4β1 integrin; host or cells: Jurkat T-cell line
Assay: Jurkat-endothelial cell adhesion assay (Jurkat EC)
Assay type: cell-based
Settings: Jurkat cells on IL-1 stimulated human umbilical vein endothelial cells; read-out: JK/EC (Jurkat EC Assay IC50 value range)
Protocol: Jurkat-endothelial Cell Adhesion Assay:
The following assay established the activity of the present compounds in inhibiting β1-mediated cell adhesion in a representative in vitro system. This assay measures the adhesive interactions of a T-cell line, Jurkat, known to express the α4β1 integrin, to endothelial monolayers in the presence of test compounds. The test compounds were added in increasing concentrations to T-cells and then the T-cell compound mixture was added to IL-1 stimulated endothelial cell monolayers. The plates were incubated, washed and the percentage of attached cells was quantitated.
Human umbilical vein endothelial cells were purchased from Clonetics (San Diego, Calif.) at passage number 2. The cells were grown on 0.5% porcine skin gelatin pre-coated flasks (Sigma, St. Louis Mo.) in EGM-UV media (Clonetics, San Diego, Calif.) supplemented with 10% fetal bovine serum. Cells are refed every 2-3 days reaching confluence by day 4 to 6. […] The endothelial cells are not used following passage 6.
The T-cell line Jurkat was obtained from American Type Tissue Culture Collection (Rockville, Md.) and the cells were cultured in RPMI containing 10% fetal calf serum. The cells were washed twice in Hank's Balanced Salt Solution (HBSS) and resuspended in Dulbecco's Minimal Eagle's Media (DMEM) containing 2.5 mg/ml Human Serum Albumin (HSA). Jurkat cells (1×10^6 cells/ml) were stained with 10 ng/ml BCECF-AM (Molecular Probes, Eugene, Oreg.)) in HBSS without phenol red. The cells were loaded with BCECF for 60 minutes in the dark at 370C, washed 2 times, and resuspended in DMEM-HSA solution.
Confluent endothelial monolayers, grown in 96-well tissue culture plates, were stimulated for 4 hr. at 37° C. with 0.1 ng/ml (˜50 U/ml) recombinant IL-1 (Amgen, Thousand Oaks, Calif.). Following this incubation, the monolayers were washed twice with HBSS and 0.1 ml of DMEM−HSA solution was added. Jurkat cells (5×10^5 cells) were combined with the appropriate concentration of the test compound and 0.1 ml of the Jurkat cell-compound mixture was added to the endothelial cell monolayers. Generally, 100, 20, 5 and 1.25 μM compound concentrations were tested. […] The plates were placed on ice for 5 minutes to allow for Jurkat cell settling and the plates were incubated at 37° C. for 20 minutes. Following this incubation, the monolayers were washed twice with PBS containing 1 mM calcium chloride and 1 mM magnesium chloride and the plates were read using a Millipore Cytofluor 2300 (Marlboro, Mass.). Fluorescence in each well was measured as Arbitrary Fluorescence Units and percent adhesion in the absence of compound was adjusted to 100% and the % adhesion in the presence of compound was calculated. Monolayers were also fixed in 3% paraformaldehyde and evaluated microscopically to verify the adhesion. This procedure is a modification of a previously published method (Cardarelli et al., J. Biol. Chem. 269:18668-18673 (1994)).

T1 sequence (P13612 34-1032): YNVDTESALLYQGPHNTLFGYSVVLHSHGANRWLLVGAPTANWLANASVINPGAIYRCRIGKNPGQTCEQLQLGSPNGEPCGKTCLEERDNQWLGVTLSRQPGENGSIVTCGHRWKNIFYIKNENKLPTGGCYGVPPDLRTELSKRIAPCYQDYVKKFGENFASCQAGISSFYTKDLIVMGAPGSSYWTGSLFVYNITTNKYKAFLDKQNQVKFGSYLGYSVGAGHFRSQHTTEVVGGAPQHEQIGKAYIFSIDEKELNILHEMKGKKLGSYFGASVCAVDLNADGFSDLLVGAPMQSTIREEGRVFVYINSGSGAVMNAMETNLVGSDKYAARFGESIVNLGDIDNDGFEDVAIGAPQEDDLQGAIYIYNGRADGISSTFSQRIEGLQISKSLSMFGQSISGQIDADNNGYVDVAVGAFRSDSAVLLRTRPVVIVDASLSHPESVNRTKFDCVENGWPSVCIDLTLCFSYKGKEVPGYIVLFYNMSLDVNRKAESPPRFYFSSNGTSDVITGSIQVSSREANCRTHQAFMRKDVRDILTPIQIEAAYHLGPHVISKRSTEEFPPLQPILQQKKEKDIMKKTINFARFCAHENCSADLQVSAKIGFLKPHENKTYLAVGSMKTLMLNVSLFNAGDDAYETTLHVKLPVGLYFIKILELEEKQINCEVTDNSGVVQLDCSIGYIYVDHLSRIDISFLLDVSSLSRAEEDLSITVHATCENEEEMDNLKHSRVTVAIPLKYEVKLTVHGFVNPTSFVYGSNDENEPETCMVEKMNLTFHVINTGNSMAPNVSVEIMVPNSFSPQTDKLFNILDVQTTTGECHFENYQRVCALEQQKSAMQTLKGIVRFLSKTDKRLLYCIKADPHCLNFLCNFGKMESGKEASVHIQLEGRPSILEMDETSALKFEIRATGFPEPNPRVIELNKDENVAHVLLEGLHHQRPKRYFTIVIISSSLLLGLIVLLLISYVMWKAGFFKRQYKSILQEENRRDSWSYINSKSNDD
T1 sequence (P05556 21-798): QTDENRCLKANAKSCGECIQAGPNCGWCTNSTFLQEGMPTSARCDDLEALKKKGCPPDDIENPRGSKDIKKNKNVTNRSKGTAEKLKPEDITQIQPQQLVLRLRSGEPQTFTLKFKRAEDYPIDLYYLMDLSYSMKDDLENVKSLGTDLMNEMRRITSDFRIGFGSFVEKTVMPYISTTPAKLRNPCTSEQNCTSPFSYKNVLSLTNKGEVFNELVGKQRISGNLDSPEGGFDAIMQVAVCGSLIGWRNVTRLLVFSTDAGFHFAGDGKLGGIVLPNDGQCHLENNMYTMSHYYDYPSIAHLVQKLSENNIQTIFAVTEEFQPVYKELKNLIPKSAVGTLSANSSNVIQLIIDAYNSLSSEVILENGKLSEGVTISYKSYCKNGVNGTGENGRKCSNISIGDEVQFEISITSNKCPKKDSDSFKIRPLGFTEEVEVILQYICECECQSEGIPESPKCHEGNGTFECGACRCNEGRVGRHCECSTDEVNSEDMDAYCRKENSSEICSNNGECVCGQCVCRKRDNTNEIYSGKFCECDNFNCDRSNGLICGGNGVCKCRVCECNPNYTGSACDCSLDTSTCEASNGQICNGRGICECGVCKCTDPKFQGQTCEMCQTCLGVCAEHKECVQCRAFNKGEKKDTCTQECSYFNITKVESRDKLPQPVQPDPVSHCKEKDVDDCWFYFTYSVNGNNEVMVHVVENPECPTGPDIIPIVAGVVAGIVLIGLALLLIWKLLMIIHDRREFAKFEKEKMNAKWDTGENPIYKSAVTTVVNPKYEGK

| SMILES | IC50 [nM] |
| --- | --- |
| COc1ccc(C(=O)N2CCCC[C@H]2C(=O)N[C@@H](Cc2ccc(NC(=O)c3c(Cl)cccc3Cl)cc2)C(=O)O)cc1OC [Example 180] | ≥ 1000 |
| O=C(O)c1ccc2cc(C(=O)N3CCCC[C@H]3C(=O)N[C@@H](Cc3ccc(NC(=O)c4c(Cl)cccc4Cl)cc3)C(=O)O)ccc2c1 [Example 183] | ≥ 1000 |
| O=C(O)CNC(=O)N1CCCC(C(=O)N[C@@H](Cc2ccc(NC(=O)c3c(Cl)cccc3Cl)cc2)C(=O)O)C1 (stereo partly shown) [Example 202] | ≥ 1000 |
| O=C(O)CC1(CC(=O)N2CCC(C(=O)N[C@@H](Cc3ccc(NC(=O)c4c(Cl)cccc4Cl)cc3)C(=O)O)CC2)CCCC1 [Example 210] | ≥ 1000 |
| O=C(O)/C=C/C(=O)N1CCC(C(=O)N[C@@H](Cc2ccc(NC(=O)c3c(Cl)cccc3Cl)cc2)C(=O)O)CC1 [Example 213] | ≥ 1000 |
| CCOC(=O)N1CSC[C@@H]1C(=O)N[C@@H](Cc1ccc(OCc2c(Cl)cccc2Cl)cc1)C(N)=O (relative stereo) [Example 90, [S-(R*,R*)]-4-[[[1-[[4-[(2,6-Dichlorophenyl)methoxy]phenyl]methyl]-2-amino-2-oxoethyl]amino]carbonyl]-3-thiazolidinecarboxylic Acid 3-Ethyl Ester] | ≥ 1000 |
| COc1ccc(C(=O)N2CCC(C(=O)N[C@@H](Cc3ccc(NC(=O)c4c(Cl)cccc4Cl)cc3)C(=O)O)CC2)cc1OC [Example 218] | ≥ 1000 |
| CC(C)(CC(=O)O)CC(=O)N1CCCCC1C(=O)N[C@@H](Cc1ccc(NC(=O)c2c(Cl)cccc2Cl)cc1)C(=O)O (stereo partly shown) [Example 169] | ≥ 1000 |
| O=C(O)c1ccccc1C(=O)N1CCC(C(=O)N[C@@H](Cc2ccc(NC(=O)c3c(Cl)cccc3Cl)cc2)C(=O)O)CC1 [Example 219] | ≥ 1000 |
| COC(=O)[C@H](Cc1ccc(NC(=O)c2c(Cl)cccc2Cl)cc1)NC(=O)C1CCCCN1C(=O)CC(C)(C)CC(=O)O (stereo partly shown) [Example 165] | ≤ 250 |
| O=C(C[C@H]1CC[C@@H](C(=O)O)N1Cc1ccccc1)N[C@@H](Cc1ccc(OCc2c(Cl)cccc2Cl)cc1)C(=O)O [Example 94, (5R)-5-[2-[[(1S)-1-Carboxy-2-[4-[(2,6-dichlorophenyl)methoxy]phenyl]ethyl]amino]-2-oxoethyl]-1-(phenylmethyl)-L-proline] | ≥ 1000 |
| O=C(O)CCC(=O)N1CCC(C(=O)N[C@@H](Cc2ccc(NC(=O)c3c(Cl)cccc3Cl)cc2)C(=O)O)CC1 [Example 209] | ≥ 1000 |
| CC(C)(CC(=O)O)CC(=O)N1CCC(C(=O)N[C@@H](Cc2ccc(NC(=O)c3c(Cl)cccc3Cl)cc2)C(=O)O)CC1 [Example 211] | ≥ 1000 |
| COC(=O)CCC1(CCC(=O)N[C@@H](Cc2ccc(NC(=O)c3c(Cl)cccc3Cl)cc2)C(=O)OC)CCC(=O)N1C (stereo partly drawn) [Example 110, 2-[3-[[(1S)-1-[[4-[(2,6-Dichlorobenzoyl)amino]phenyl]methyl]-2-methoxy-2-oxoethyl]amino]-3-oxopropyl]-1-methyl-5-oxo-2-pyrrolidinepropanoic Acid Methyl Ester] | ≥ 1000 |
| O=C(O)c1ccc(NC(=O)N2CCC(C(=O)N[C@@H](Cc3ccc(NC(=O)c4c(Cl)cccc4Cl)cc3)C(=O)O)CC2)cc1 [Example 175, N-[[1-[[(4-Carboxyphenyl)amino]carbonyl]-4-piperidinyl]carbonyl]-4-[(2,6-dichlorobenzoyl)amino]-L-phenylalanine] | ≥ 1000 |
| COC(=O)[C@H](Cc1ccc(NC(=O)c2c(Cl)cccc2Cl)cc1)NC(=O)C1CCCCN1C(=O)CCC(=O)O (stereo partly drawn) [Example 163, 2-[[[(1S)-1-[[4-[(2,6-Dichlorobenzoyl)amino]phenyl]methyl]-2-methoxy-2-oxoethyl]amino]carbonyl]-γ-oxo-1-piperidinebutanoic Acid] | ≥ 1000 |

| SMILES | IC50 [nM] |
| --- | --- |
| O=C(C[C@@H]1CC[C@H](C(=O)O)N1Cc1ccccc1)N[C@@H](Cc1ccc(OCc2c(Cl)cccc2Cl)cc1)C(=O)O [Example 95, (5S)-5-[2-[[(1S)-1-Carboxy-2-[4-[(2,6-dichlorophenyl)methoxy]phenyl]ethyl]amino]-2-oxoethyl]-1-(phenylmethyl)-D-proline] | ≥ 1000 |
| O=C(O)c1cccc(C(=O)N2CCCC(C(=O)N[C@@H](Cc3ccc(NC(=O)c4c(Cl)cccc4Cl)cc3)C(=O)O)C2)c1 (stereo partly shown) [Example 205] | 250 to 1000 |
| O=C(O)c1ccc2cc(C(=O)N3CCC(C(=O)N[C@@H](Cc4ccc(NC(=O)c5c(Cl)cccc5Cl)cc4)C(=O)O)CC3)ccc2c1 [Example 221] | ≥ 1000 |
| O=C(Nc1ccc(C[C@H](NC(=O)C2CCN(C(=O)C3CCCC(C(=O)O)C3)CC2)C(=O)O)cc1)c1c(Cl)cccc1Cl (stereo partly shown) [Example 215] | ≥ 1000 |
| COC(=O)[C@H](Cc1ccc(NC(=O)c2c(Cl)cccc2Cl)cc1)NC(=O)C1CCCCN1C(=O)/C=C\C(=O)O (stereo partly shown) [Example 166] | ≥ 1000 |
| COCCC(=O)N1CCC(C(=O)N[C@@H](Cc2ccc(NC(=O)c3c(Cl)cccc3Cl)cc2)C(=O)O)CC1 [Example 214] | ≥ 1000 |
| O=C(O)CCC(=O)N1CCCC(C(=O)N[C@@H](Cc2ccc(NC(=O)c3c(Cl)cccc3Cl)cc2)C(=O)O)C1 (stereo partly drawn) [Example 174, 3-[[[(1S)-1-Carboxy-2-[4-[(2,6-dichlorobenzoyl)amino]phenyl]ethyl]amino]carbonyl]-γ-oxo-1-piperidinebutanoic Acid] | 250 to 1000 |
| COC(=O)CCC1(CCC(=O)N[C@@H](Cc2ccc(OCc3c(Cl)cccc3Cl)cc2)C(=O)OC)CCC(=O)N1 (stereo partly drawn) [Example 112, 2-[3-[[(1S)-1-[[4-[(2,6-Dichlorophenyl)methoxy]phenyl]methyl]-2-methoxy-2-oxoethyl]amino]-3-oxopropyl]-5-oxo-2-pyrrolidinepropanoic Acid Methyl Ester] | ≥ 1000 |
| CC(=O)CCC(=O)N1CCCC[C@H]1C(=O)N[C@@H](Cc1ccc(NC(=O)c2c(Cl)cccc2Cl)cc1)C(=O)O [Example 179] | 250 to 1000 |
| O=C(O)/C=C\C(=O)N1CCCCC1C(=O)N[C@@H](Cc1ccc(NC(=O)c2c(Cl)cccc2Cl)cc1)C(=O)O (stereo partly shown) [Example 170] | ≥ 1000 |
| COC(=O)[C@H](Cc1ccc(NC(=O)c2c(Cl)cccc2Cl)cc1)NC(=O)C1CCCCN1C(=O)CC1(CC(=O)O)CCCC1 (stereo partly shown) [Example 164] | ≥ 1000 |
| O=C(O)/C=C\C(=O)N1CCC(C(=O)N[C@@H](Cc2ccc(NC(=O)c3c(Cl)cccc3Cl)cc2)C(=O)O)CC1 [Example 212] | ≥ 1000 |
| O=C(O)CC1(CC(=O)N2CCCCC2C(=O)N[C@@H](Cc2ccc(NC(=O)c3c(Cl)cccc3Cl)cc2)C(=O)O)CCCC1 (stereo partly shown) [Example 168] | ≥ 1000 |
| O=C(O)c1ccc(NC(=O)N2CCCC(C(=O)N[C@@H](Cc3ccc(NC(=O)c4c(Cl)cccc4Cl)cc3)C(=O)O)C2)cc1 (stereo partly shown) [Example 208] | ≥ 1000 |
| O=C(O)CNC(=O)N1CCC(C(=O)N[C@@H](Cc2ccc(NC(=O)c3c(Cl)cccc3Cl)cc2)C(=O)O)CC1 [Example 217] | ≥ 1000 |

Reference: patent US6685617B1, “Inhibitors of α4β1 mediated cell adhesion” (Pharmacia & Upjohn Company, priority 1998, dated 2004)
